Experimental data from publication PMC10067855, “Sialidases and fucosidases of Akkermansia muciniphila are crucial for growth on mucin and nutrient sharing with mucus-associated gut bacteria” (Nature Communications, 2023).

Legend:
AmGH95A = molecular target: T1, AmGH95A (Akkermansia muciniphila, UniProt B2UM81); experiment: inhibition of pNPFuc hydrolysis, A405; format: biochemical
T1 construct: gene Amuc_0186; mature peptide lacking the signal peptide
T1 sequence (B2UM81 25-788): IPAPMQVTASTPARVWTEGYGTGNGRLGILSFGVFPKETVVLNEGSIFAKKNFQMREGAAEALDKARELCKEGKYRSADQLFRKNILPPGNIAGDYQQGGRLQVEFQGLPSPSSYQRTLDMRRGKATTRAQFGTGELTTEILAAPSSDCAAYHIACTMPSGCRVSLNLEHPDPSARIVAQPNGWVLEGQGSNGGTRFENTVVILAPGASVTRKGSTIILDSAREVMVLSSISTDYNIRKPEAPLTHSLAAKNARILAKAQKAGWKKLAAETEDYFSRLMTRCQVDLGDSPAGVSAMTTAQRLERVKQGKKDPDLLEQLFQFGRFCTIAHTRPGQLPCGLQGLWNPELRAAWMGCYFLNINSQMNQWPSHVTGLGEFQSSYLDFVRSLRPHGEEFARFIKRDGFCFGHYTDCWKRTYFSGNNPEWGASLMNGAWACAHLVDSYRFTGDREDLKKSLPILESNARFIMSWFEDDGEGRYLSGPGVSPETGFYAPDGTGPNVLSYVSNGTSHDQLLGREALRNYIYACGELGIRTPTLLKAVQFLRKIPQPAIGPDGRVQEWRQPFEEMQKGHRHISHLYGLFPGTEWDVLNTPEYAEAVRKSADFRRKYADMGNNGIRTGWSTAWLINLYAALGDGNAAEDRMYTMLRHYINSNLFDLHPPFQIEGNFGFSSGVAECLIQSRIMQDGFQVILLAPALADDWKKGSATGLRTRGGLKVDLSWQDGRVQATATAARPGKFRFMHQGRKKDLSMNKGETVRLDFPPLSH

AmGH95B = molecular target: T2, AmGH95B (Akkermansia muciniphila, UniProt B2UR61); experiment: inhibition of pNPFuc hydrolysis, A405; format: biochemical
T2 construct: gene Amuc_1120; mature peptide lacking the signal peptide
T2 sequence (B2UR61 23-796): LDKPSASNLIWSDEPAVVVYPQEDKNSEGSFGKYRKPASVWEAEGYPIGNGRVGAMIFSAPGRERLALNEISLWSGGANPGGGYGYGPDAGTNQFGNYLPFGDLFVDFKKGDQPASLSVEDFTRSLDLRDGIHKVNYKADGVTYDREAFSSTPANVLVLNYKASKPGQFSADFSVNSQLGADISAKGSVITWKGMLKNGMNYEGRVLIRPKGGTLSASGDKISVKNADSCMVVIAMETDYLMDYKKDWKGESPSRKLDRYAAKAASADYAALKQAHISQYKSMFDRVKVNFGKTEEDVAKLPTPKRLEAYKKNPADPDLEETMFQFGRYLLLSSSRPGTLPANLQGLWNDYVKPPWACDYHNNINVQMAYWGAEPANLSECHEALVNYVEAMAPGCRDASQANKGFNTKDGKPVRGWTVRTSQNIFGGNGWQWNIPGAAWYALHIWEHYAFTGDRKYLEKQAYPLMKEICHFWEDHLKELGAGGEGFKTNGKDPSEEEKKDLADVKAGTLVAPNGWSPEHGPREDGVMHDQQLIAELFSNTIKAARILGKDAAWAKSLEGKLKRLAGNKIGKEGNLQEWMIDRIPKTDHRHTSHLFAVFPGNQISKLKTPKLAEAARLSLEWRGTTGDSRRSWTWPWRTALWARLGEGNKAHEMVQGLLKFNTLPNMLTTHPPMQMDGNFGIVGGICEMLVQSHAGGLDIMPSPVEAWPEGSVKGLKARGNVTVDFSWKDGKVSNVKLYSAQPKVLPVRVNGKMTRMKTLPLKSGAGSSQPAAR

IC50 (AmGH95A): < 54 µM | IC50 (AmGH95B): < 54 µM
SMILES: C[C@@H]1NC[C@@H](O)[C@H](O)[C@@H]1O [DFJ, 1-Deoxyfuconojirimycin]
